The experiment has as its target T1, C-terminal GST-tagged, recombinant, human IGF-1R, amino acids 954-1367 (Homo sapiens, UniProt P08069).
T1 construct: human IGF-1R, amino acids 954-1367 expressed by baculovirus in Sf21 cells; GST (C); purchased Cell Signaling Technology; host or cells: baculovirus in Sf21 cells
Description: IGF-1R kinase activity, homogenous time-resolved fluorescence (HTRF) in vitro kinase assay. The experiment is classed as biochemical. To be noted: IGF-1R kinase HTRF assay, ATP 50 μM, biotinylated peptide substrate 0.5 μM, 60 minutes at room temperature. In outline:
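HTRF assay with baculovirus/Sf21-expressed enzyme, 50 μM ATP, 0.5 μM biotinylated peptide substrate, 2% DMSO, in HEPES pH 7.5 buffer with MgCl2, 2 mM MnCl2, BSA, DTT; 60 min at room temperature. EDTA-quenched, detected with streptavidin-APC and Eu-cryptate anti-phosphotyrosine mAb; 615/665 nm ratio used for IC50.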

Some results are limits rather than exact numbers.

Usually IC50 stands for the concentration needed to halve the response being measured.

T1 sequence (P08069 954-1367): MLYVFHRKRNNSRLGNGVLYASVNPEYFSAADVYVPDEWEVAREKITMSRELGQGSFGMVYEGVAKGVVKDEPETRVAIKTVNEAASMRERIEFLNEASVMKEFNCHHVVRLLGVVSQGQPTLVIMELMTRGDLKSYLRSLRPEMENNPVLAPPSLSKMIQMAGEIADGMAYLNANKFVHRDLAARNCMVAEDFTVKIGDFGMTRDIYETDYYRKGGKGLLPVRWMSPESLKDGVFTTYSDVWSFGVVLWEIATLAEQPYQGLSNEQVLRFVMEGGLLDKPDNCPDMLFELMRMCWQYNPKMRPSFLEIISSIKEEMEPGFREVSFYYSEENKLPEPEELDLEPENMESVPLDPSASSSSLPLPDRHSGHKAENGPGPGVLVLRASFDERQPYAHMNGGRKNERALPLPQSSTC

Take `CN(C)S(=O)(=O)c1cccc(Nc2nccc(-c3c(-c4ccc(OCc5ccccc5)cc4)nc4ccccn34)n2)c1` [Example 5, 3-[(4-{2-[4-(benzyloxy)phenyl]imidazo[1,2-a]pyridin-3-yl}pyrimidin-2-yl)amino]-N,N-dimethylbenzenesulfonamide]: the IC50 was over 1 µM.

With `CCc1cc(-c2nc3ccccn3c2-c2ccnc(Nc3cccc(CCN(C)C)c3)n2)ccc1OCc1ccccc1` [Example 50, 4-{2-[4-(benzyloxy)-3-ethylphenyl]imidazo[1,2-a]pyridin-3-yl}-N-{3-[2-(dimethylamino)ethyl]phenyl}pyrimidin-2-amine], the IC50 is over 1 µM.

In the case of `OCCn1cc(Nc2nccc(-c3c(-c4ccc(OCc5ccccc5)cc4)nc4ccccn34)n2)cn1` [Example 27, 2-{4-[(4-{2-[4-(benzyloxy)phenyl]imidazo[1,2-a]pyridin-3-yl}pyrimidin-2-yl)amino]-1H-pyrazol-1-yl}ethanol], the IC50 lay in the range of 0.101 to 0.5 µM.

The values are drawn from patent publication US8354422B2, “Pyrimidine inhibitors of kinase activity” (Abbott Laboratories Inc., priority 2009, dated 2013).
